Tests used:
[1] = system: peroxisome proliferator-activated receptor, PPAR-a; details: cited from earlier work
[2] = molecular target: T1, 15-Lox-2 (second type of human 15S-lipoxygenase) (Homo sapiens, UniProt O15296, Q656R); test: Lipoxygenase metabolism of 14C substrates by the new 15S-lipoxygenase expressed in HEK 293 cells, HPLC analysis; format: biochemical; details: 2 mM added; [14C]arachidonic acid as substrate
T1 construct: Initially, five full length clones were expressed in HEK 293 cells; expressed in transfected cells; host or cells: HEK 293 cells, transient transfection (pCDNA3 or pCR3); sonicated cells incubated with substrate
T1 sequence (O15296 1-676 Q656R): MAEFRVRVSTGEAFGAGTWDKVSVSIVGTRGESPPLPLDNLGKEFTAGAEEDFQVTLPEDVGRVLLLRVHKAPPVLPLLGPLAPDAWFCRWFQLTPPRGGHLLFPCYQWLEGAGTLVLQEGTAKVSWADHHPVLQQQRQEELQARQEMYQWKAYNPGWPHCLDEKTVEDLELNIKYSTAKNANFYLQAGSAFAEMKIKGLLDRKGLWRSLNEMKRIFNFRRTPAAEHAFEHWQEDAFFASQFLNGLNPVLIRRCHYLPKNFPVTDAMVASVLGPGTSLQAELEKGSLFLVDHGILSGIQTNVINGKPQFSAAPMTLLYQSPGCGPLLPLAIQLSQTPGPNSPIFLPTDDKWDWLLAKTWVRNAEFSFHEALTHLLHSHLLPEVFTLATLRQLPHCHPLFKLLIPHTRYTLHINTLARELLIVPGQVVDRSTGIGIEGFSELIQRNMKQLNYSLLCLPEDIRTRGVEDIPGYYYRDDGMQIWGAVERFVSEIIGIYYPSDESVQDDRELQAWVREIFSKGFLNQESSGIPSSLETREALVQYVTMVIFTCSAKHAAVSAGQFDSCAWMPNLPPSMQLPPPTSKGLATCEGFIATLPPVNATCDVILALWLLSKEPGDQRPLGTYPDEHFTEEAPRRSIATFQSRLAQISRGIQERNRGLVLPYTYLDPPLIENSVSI
Excerpt: (§1) The PCR products corresponding to the open reading frame of the cDNA were subcloned into the pCDNA3 vector (Invitrogen), or in some experiments ligated directly into pCR3 (Invitrogen), and expressed by transient transfection in human embryonic kidney (HEK) 293 cells as described (Funk et al. (1996) J. Biol. Chem. 271, 23338-23344).

[3] = system: 8S-lipoxygenase expression in mouse skin; test: Effect of topical phorbol ester on 8S-lipoxygenase expression in mouse skin (activity assay, Northern, Western, immunohistochemistry); format: in vivo; details: for induction of 8S-lipoxygenase in skin: black Swiss mixed breed (outbred) pups, dorsal skin, topical
Procedure: FIG. 9A: Normal-phase HPLC analysis of 8S-lipoxygenase activity in homogenates of back skin of 7-8-day-old black Swiss pups following 24 hr treatment with vehicle (acetone) or phorbol ester ([…]).
Phorbol ester (PMA, 10 nmol) dissolved in […] of acetone was applied topically onto dorsal skin of 6-7-day-old mice. At 21-24 h after PMA-treatment, the mice were euthanized, and epidermis was prepared from the frozen dorsal skin as previously described (Hughes et al. (1991) Biochim. Biophys. Acta 1081:347-354). The frozen epidermis was dropped into guanidinium thiocyanate solution, the lysis buffer from the RNeasy RNA extraction kit (QIAGEN). After a brief sonication using an ultrasonic probe (2 sec, twice), total RNA was extracted according to the manufacturer's instructions. Approximately […] of total RNA was recovered in […] of water. Twenty microliter aliquots were used in […] reactions for first strand cDNA synthesis using an oligo-dT-adaptor primer (Brash et al. (1996) J. Biol. Chem. 271:20949-20957). One microliter aliquots of CDNA were used directly in PCR reactions.
Poly(A)+RNA was prepared from PMA- or acetone-treated frozen dorsal skin using TRI REAGENT® (Molecular Research Center, Inc.) and Oligotex™ (Qiagen) according to the manufacturers' instructions. The poly(A)^+ RNA was electrophoresed in 1% agarose/formaldehyde gel and blotted to a Hybond-H^+ nylon membrane (Amersham). The membrane was hybridized with ^32P-labeled DNA probe (complementary with a 0.6-kb EcoRV/BamHI fragment of mouse epidermal 8S-lipoxygenase) prepared using the Multiprime DNA labeling kit and Rapid-hybridization buffer (Amersham), and then washed according to the manufacturer's specifications. Blots were exposed to Fuji x-ray film at −80° C. Mouse cyclophilin cDNA was used as a house-keeping gene to access loading of RNA.
After quantitation by Bradford assay (Bio-Rad), protein was separated by SDS polyacrylamide gel electrophoresis (SDS-PAGE) and then transferred electrophoretically to Hybond ECL nitrocellulose membranes (Amersham). These were probed using a rabbit polyclonal antibody raised against the human 15-Lox-2. This antibody recognises 15-Lox-2 and the mouse 8S-lipoxygenase, but not the human reticulocyte type of 15S-lipoxygenase, as more fully described below. Donkey anti-rabbit Ig linked with horseradish peroxidase (Amersham) was the secondary antibody. Specifically bound protein was detected by chemiluminescence using the ECL Western blotting detection reagents (Amersham).
The dorsal and tail skin of six to seven (6-7)-day-old mice were treated with acetone or PMA (10 nmol for dorsal skin, 2 nmol for tail skin). After 24 h, the animals were euthanized and the dorsal and tail skin were washed with soap and then rinsed thoroughly with water. […]

[4] = molecular target: T2, mouse 8S-lipoxygenase (8-Lox) (Mus musculus, UniProt O35936); format: biochemical
T2 sequence (O35936 1-677): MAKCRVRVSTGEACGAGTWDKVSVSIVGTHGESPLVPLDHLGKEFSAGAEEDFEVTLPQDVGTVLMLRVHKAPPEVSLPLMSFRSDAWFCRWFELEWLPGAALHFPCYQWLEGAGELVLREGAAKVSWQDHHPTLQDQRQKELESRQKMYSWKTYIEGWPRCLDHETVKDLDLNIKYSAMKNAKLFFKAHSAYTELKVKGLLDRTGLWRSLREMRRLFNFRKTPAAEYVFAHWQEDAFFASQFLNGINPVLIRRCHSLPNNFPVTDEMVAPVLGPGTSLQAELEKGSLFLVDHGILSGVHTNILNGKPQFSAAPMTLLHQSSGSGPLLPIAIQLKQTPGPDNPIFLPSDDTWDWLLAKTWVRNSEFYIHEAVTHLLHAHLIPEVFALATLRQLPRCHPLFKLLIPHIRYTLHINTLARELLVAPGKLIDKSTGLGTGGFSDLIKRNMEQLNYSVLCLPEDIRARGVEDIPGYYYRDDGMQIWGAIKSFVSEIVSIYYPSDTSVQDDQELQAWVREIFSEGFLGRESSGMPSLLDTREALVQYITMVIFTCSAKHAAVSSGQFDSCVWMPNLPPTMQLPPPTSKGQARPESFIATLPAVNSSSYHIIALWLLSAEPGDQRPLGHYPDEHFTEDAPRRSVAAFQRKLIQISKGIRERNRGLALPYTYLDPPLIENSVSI

[5] = molecular target: T3, blood cell 15S-lipoxygenase (15-Lox-1) (Homo sapiens, UniProt P16050); test: Lipoxygenase metabolism of 14C substrates by the blood cell 15S-lipoxygenase analysed in the same experiments; format: biochemical; details: applicants' experiments
T3 construct: expressed in transfected cells
T3 sequence (P16050 1-662): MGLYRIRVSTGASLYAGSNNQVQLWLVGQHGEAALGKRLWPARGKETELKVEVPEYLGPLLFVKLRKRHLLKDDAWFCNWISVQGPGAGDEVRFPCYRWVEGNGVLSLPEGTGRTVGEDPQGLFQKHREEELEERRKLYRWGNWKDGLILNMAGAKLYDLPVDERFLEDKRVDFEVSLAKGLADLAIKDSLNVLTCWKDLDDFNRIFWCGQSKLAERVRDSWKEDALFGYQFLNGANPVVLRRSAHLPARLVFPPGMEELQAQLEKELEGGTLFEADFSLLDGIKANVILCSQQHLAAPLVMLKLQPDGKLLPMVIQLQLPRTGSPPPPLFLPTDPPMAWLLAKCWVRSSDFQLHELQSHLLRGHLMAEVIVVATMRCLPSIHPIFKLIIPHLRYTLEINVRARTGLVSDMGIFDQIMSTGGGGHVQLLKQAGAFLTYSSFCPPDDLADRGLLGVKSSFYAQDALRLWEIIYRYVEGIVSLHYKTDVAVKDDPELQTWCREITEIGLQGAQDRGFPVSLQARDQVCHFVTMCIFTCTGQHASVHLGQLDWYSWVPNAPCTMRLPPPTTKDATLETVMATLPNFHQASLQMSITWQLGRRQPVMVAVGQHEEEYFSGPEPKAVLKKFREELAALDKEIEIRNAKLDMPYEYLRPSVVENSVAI
Excerpt: as §1

## CCCCC/C=C\C/C=C\C=C\[C@@H](O)C/C=C\CCCC(=O)O [8S-HETE]
[1]
  activity at PPAR-a: strong activator

## Nc1ncnc2c1ncn2[C@@H]1O[C@H](COP(=O)(O)OP(=O)(O)OP(=O)(O)O)[C@@H](O)[C@H]1O [ATP]
[2]
  effect of addition to the incubation media on enzymatic activity: no significant effect

## CCCCCCCCCCCCCC(=O)O[C@@H]1[C@@H](C)[C@@]2(O)[C@@H](C=C(CO)C[C@]3(O)C(=O)C(C)=C[C@@H]23)[C@@H]2C(C)(C)[C@]12OC(C)=O [PMA, Phorbol-12-myristate-13-acetate]
[3]; Sencar strain, 6-10-day-old pups, high constitutive activity
  induction of 8S-lipoxygenase activity in skin: little extra induction
[3]; 24 h
  induction of 8S-lipoxygenase in skin: strongly induced
[3]; 24 h, listed as phorbol ester
  induction of 8S-lipoxygenase in skin: strong induction
[3]; black Swiss, dorsal and tail skin, topical in acetone, 24 h
  histological response of skin (epidermis): marked hyperproliferative response

## CCCCC/C=C\C/C=C\C/C=C\C/C=C\CCCC(=O)O [arachidonic acid]
[4]
  added arachidonic acid converted to 8S-HPETE: 30-40%
  product formed from the substrate: exclusively to 8S-hydroperoxyeicosatetraenoic acid

## [Ca+2] [calcium]
[2]
  effect of addition to the incubation media on enzymatic activity: no significant effect

## CCCCC/C=C\C/C=C\CCCCCCCC(=O)O [linoleic acid]
[4]
  product formed from the substrate: exclusively to 9S-HODE
[5]
  extent of metabolism compared with arachidonic acid: metabolized more extensively than arachidonic acid

Reference: patent US6649355B2, “Lipoxygenase proteins and nucleic acids” (priority 1998, dated 2003)
